According to PubChem BioAssay AID651985 (The Scripps Research Institute Molecular Screening Center, 2013):
Calls of active or inactive are those of the source. No rule for the calls is given here.

Columns and labels:
[1] = system: LYPLA2; test: PubChem AID 651985; conditions: C57 mice dosed, tissue gel ABPP with NHU5 probe, stronger effect = higher value
[2] = system: LYPLA1; test: PubChem AID 651985; conditions: C57 mice dosed, tissue gel ABPP with NHU5 probe, stronger effect = higher value

Structure (SMILES)	inhibition ([1]; heart) [%]	inhibition [1]	inhibition ([1]; kidney) [%]	inhibition ([1]; liver) [%]	inhibition ([1]; lung) [%]	inhibition ([2]; heart) [%]	inhibition [2]	inhibition ([2]; kidney) [%]	inhibition ([2]; liver) [%]	inhibition ([2]; lung) [%]
COc1ccc(N2CCN(C(=O)c3cc4c(s3)-c3ccccc3S(=O)(=O)C4)CC2)cc1	100	50%	75	0	100	0	0% (inactive)	0	0	0
O=C(CN1CCN(C(=O)c2ccco2)CC1)Nc1cc(C(F)(F)F)ccc1Cl	0	0% (inactive)	0	0	0	100	25%	75	0	100
